Laboratory results reported in patent publication US5302589A, “Heterocyclic inhibitors of 5-α-testosterone reductase” (Glaxo, Inc., priority 1992, dated 1994).

Target: T1, 5-α-reductase (Homo sapiens, UniProt P31213)
T1 construct: microsomes derived from human prostate tissue; from tissue; host or cells: human prostate tissue (BPH patients), microsomes
T1 sequence (P31213 1-254): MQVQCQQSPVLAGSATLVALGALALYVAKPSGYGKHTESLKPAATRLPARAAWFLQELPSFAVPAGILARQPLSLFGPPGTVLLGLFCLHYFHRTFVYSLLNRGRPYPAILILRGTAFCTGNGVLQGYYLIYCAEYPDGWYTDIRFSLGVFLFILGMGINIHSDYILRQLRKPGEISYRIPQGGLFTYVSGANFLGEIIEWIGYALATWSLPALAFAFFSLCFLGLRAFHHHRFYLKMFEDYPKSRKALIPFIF
Test: Steroid 5-α-reductase in vitro assay (prostatic microsomes, conversion of [3H]-testosterone to DHT)
Format: biochemical
Settings: microsomes from human (BPH) prostate tissue; 100 nM [1,2,6,7-^3 H]-testosterone, 1 mM NADPH, 60 minutes at 37° C.; HPLC with radiochemical detection; read-out: 5-α-REDUCTASE in vitro INHIBITORY ACTIVITY IC50 Human
Experimental: Enzyme activity may be determined using microsomes derived from prostate tissue of benign prostatic hypertrophy (BPH) patients or from rat prostate tissue. Prostatic microsomes were prepared by homogenization of the tissue, followed by differential centrifugation of the homogenate. Microsome extracts were incubated with 100 nM [1,2,6,7-^3 H]-testosterone, 1 mM NADPH and varying amounts of the a compounds of Formula (I), i.e., a test compound, for 60 minutes at 37° C. Corresponding incubations were carried out with no test compound as a control study. The percentage of conversion of testosterone to DHT in the presence of a test compounds compared to the corresponding conversion in the control study was estimated using high pressure liquid chromatography (HPLC) with radiochemical detection. The results of this assay as IC50 values for microsomes derived from human prostate tissue are show in Table 1.

Row | IC50 [µM] | Compound
1 | 0.1 to 1 | CCN(CC)C(=O)[C@H]1CC[C@H]2[C@@H]3Cn4nnc5c4[C@](C)(CCC5=O)[C@H]3CC[C@]12C [Compound 1, 17β-N,N-Diethylcarbamoyl-6-azaandrost-4,6-diazo-4-en-3-one]
2 | 0.01 to 0.1 | CCN(CC)C(=O)[C@H]1CC[C@H]2[C@@H]3Cn4ccc5c4[C@](C)(CCC5=O)[C@H]3CC[C@]12C [Compound 2, 17β-N,N-Diethylcarbamoyl-6-azaandrost-4,6-etheno-4-en-3-one]
3 | 0.01 to 0.1 | CC(C)(C)NC(=O)[C@H]1CC[C@H]2[C@@H]3Cn4ccc5c4[C@](C)(CCC5=O)[C@H]3CC[C@]12C [Compound 3, 17β-N-t-Butylcarbamoyl-6-azaandrost-4,6-etheno-4-en-3-one]
4 | 0.01 to 0.1 | CC(C)(C)NC(=O)[C@H]1CC[C@H]2[C@@H]3CN4CCCCC5=C4[C@](C)(CCC5=O)[C@H]3CC[C@]12C [Compound 4, 17β-N-t-Butylcarbamoyl-6-azaandrost-4,6-butano-4-en-3-one]
